# Experimental data from patent US20240350402A1, “TOPICAL DRUG TREATMENT TO PREVENT OR REDUCE CORNEAL SCARRING” (The Cleveland Clinic Foundation, priority 2021, published 2024).
# Columns and labels:
# [1] = system: corneal neovascularization (CNV); test: Alkali burn model: central corneal neovascularization (corneal angiography); type: in vivo, rabbit; settings: four corneas in each group, topical six times per day, one month
# Description: Alkali injuries were produced in one eye of rabbits with previously published methods^10 using 1N sodium hydroxide (Sigma, St. Louis, MO) in balanced salt solution (BSS, 0.64% sodium chloride, 0.075% potassium chloride, 0.048% calcium chloride dihydrate, […] magnesium chloride hexahydrate, 0.39% sodium acetate trihydrate, 0.17% sodium citrate dihydrate, pH 7.5, Alcon, H. Worth, TX) and a 5 mm diameter circular Whatman No. 1 filter paper (Cat #1001-6508, Fisher Scientific) wetted with 100 μl of 1N NaOH solution. Following the alkali burn injury, the cornea was irrigated profusely with BSS. Each injured cornea also received one drop of ciprofloxacin (Alcon, Ft. Worth, TX, USA) ten minutes after surgery and four times a day for one week and at least 15 minutes apart from the study medications.
# Worth TX), at least 5 minutes apart, or 4) 50 μl of BSS.
# All corneas had fluorescent angiography at the peak of dye passage in the cornea immediately after injection of 1.5 ml of 10% sodium fluorescein (McKesson, Irvine, TX) in the central ear vein with the slit lamp system and digital camera system using a “barrier filter” that only transmitted 520-530 nm, the peak of fluorescein emission, with broad illumination of the cornea, as previously described.^11
# [2] = system: rabbit corneas after -9D PRK; test: -9D PRK model: slit lamp central opacity (ImageJ); type: in vivo; settings: topical 0.8 mg/ml losartan six times a day, one month
# Description: Animal procedures were approved by the Institutional Animal Care and Use Committee at the Cleveland Clinic Foundation and animals were treated in accordance with the tenets of the Association for Research in Vision and Ophthalmology Statement for the Use of Animals in Ophthalmic and Vision Research. Twelve female 12- to 15-week-old New Zealand white rabbits weighing 2.5 to 3 kg each were included. Starting 24 hours prior to surgery and continuing 5 days after PRK, all rabbits received 60 mL children's liquid acetaminophen (Johnson & Johnson, Ft. Washington, PA, USA) per 1 L of drinking water. One eye of each rabbit was randomly selected to have −9.0 D (on myopia scale) PRK and received 2 drops of topical 1% proparacaine hydrochloride (Alcon, Fort Worth, TX, USA) prior to the surgery. […]
# At 1 month after PRK and treatment, each rabbit was placed under ketamine-xylazine general anesthesia and the eyes were dilated with two drops of 1% tropicamide (Akorn Co., Lake Forest, IL, USA) for 30 minutes. […] For each study cornea, the mean opacity in pixels in the central 3.5 mm of the PRK ablated zone was determined by using ImageJ 1.53a analysis software (National Institutes of Health, Bethesda, MD, USA). […]
structure (smiles),measurement,setting,value
CCCCc1nc(Cl)c(CO)n1Cc1ccc(-c2ccccc2-c2nn[nH]n2)cc1 [losartan],corneas in which central corneal neovascularization developed,[1],two
same,mean pixels of opacity within the analyzed 3.5 mm diameter area (mean±SEM),[2],77±3 pixels
